Measurements published in patent US7579350B2, “Scaffolds for α-helix mimicry” (The Scripps Research Institute, priority 2005, dated 2009).

melting point: 130 °C
SMILES: COC(=O)c1cccc(-c2nnc(-c3ccccc3[N+](=O)[O-])cc2Cc2ccccc2)c1
